Read-outs that look alike come from different tables or passages of the source.
How the values were obtained:
rA1 adenosine receptor = target: T1, rA1 adenosine receptor (Rattus norvegicus, UniProt P25099); experiment: Rat A1 adenosine receptor binding assay, [3H]CHA displacement, rat brain membranes
T1 construct: membranes of rat brain (150-200 μg- of protein/assay); from tissue; host or cells: whole brain of male Wistar rats
T1 sequence (P25099 1-326): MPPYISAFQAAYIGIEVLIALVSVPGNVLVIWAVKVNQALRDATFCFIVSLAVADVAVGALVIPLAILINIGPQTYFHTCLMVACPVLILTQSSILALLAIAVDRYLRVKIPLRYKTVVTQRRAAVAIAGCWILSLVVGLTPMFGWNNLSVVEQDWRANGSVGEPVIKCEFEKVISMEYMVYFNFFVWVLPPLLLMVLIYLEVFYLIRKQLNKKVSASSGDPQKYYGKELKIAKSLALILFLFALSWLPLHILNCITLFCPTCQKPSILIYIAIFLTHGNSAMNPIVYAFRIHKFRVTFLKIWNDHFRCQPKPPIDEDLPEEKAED
Experimental: (§3) Male Wistar rats (200-250 g) were decapitated and the whole brain and striatum dissected on ice. […] The homogenate was centrifuged at 48,000 for 10 min, and the pellet was resuspended in the same buffer containing 2 IU/mL adenosine deaminase. After 30 min incubation at 37° C., the membranes were centrifuged and pellets were stored at −80° C. Prior to freezing, an aliquot of homogenate was removed for protein assay with bovine albumin as reference standard. Binding assays were performed on rat brain and striatum membranes respectively, in the presence of 10 mM MgCl2 at 25° C.
(§4) Separation of bound from free radio ligand was performed by rapid filtration through Whatman GF/B filters which were washed three times with ice-cold buffer. Filter bound radioactivity was measured by scintillation spectrometry after addition of 5 mL of Aquassure. […] Ki values were calculated from the Cheng-Prusoff equation. All binding data were analyzed using the nonlinear regression curve-fitting computer program LIGAND.

rA2A adenosine receptor = target: T2, rA2A adenosine receptor (Rattus norvegicus, UniProt P30543); experiment: Rat A2A adenosine receptor binding assay, [3H]SCH58261 displacement, rat striatum membranes; conditions: rat striatum membranes, [3H]SCH58261; read-out: rA2A (Ki)
T2 construct: membranes of rat striatum (80-100 μmg of protein/assay); from tissue; host or cells: striatum of male Wistar rats
Experimental: as §3, §4

[1] = target: T3, human recombinant A3 adenosine receptor (Homo sapiens, UniProt P0DMS8); experiment: Human cloned A3 adenosine receptor binding assay, [125I]AB-MECA, HEK-293 membranes; design: USA; host or cells: HEK-293
T3 sequence (P0DMS8 1-318): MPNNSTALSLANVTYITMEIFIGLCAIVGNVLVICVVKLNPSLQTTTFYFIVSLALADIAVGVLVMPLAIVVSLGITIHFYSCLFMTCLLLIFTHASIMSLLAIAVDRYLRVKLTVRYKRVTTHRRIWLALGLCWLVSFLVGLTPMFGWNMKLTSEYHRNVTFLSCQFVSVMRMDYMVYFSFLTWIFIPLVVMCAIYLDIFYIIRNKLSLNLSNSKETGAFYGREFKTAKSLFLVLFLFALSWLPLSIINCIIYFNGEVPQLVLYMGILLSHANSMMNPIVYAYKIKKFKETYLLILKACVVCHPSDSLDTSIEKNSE

[2] = target: T4, human recombinant A1 adenosine receptor (Homo sapiens, UniProt P30542); experiment: Human cloned A1 receptor binding, [3H]-DPCPX, CHO cells; conditions: read-out: hA1 (Ki)
T4 construct: expressed in transfected cells; host or cells: CHO
T4 sequence (P30542 1-326): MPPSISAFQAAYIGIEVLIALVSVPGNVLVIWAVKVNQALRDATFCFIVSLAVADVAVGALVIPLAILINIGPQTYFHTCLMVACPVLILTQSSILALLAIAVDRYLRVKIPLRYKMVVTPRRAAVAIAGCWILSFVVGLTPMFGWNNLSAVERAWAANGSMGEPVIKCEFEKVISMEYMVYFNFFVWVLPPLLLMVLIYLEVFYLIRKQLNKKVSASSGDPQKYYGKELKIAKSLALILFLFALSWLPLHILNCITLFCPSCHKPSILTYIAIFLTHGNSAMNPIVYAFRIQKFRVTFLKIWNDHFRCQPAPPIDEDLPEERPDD
Experimental: (§1) The expression of the human A1, A2A, A2B and A3 receptors in CHO cells has been previously described (Klotz et al., 1998). The cells are grown adherently and maintained in Dulbecco's modified Eagle's medium with nutrient mixture F12 without nucleosides at 37 ° C. in 5% CO2/95% air. Cells are split two or three times weekly and then the culture medium is removed for membrane preparations. The cells are washed with phosphate-buffered saline and scraped off flasks in ice cold hypotonic buffer (5 mM Tris HCl, 2 mM EDTA, pH 7.4). The cell suspension is homogenized with Polytron and the homogenate is centrifuged for 30 min. at 48,000 g. The membrane pellet is re-suspended in 50 mM Tris HCl buffer at pH 7.4 for A1 adenosine receptors, in 50 mM Tris HCl, 10 mM MgCl2 at pH 7.4 for A2A adenosine receptors, in 50 mM Tris HCl, 10 mM MgCl2, 1 mM EDTA at pH 7.4 for A3 adenosine receptors and are utilized for binding and adenylate cyclase assays.
Binding of [^3H]-DPCPX to CHO cells transfected with the human recombinant A1 adenosine receptor is performed according to the method previously described by Klotz and coworkers (Klotz, K. N.; Cristalli, G.; Grifantini, M.; Vittori, S.; Lohse, M. J., “Photoaffinity labeling of A1 adenosine receptors,” J. Biol. Chem., 260, 14659-14664, 1985).
(§2) Displacement experiments are performed for 120 min. at 25° C. in 0.20 mL of buffer containing 1 nM [^3H]-DPCPX, 20 μL of diluted membranes (50 μg of protein/assay) and at least 6-8 different concentrations of examined compounds. Non-specific binding is determined in the presence of 10 μM of CHA and this is always 10% of the total binding. Binding of [^3H]-SCH58261 to CHO cells transfected with the human recombinant A2A adenosine receptors (50 μg of protein/assay) was performed according to Varani et al. (Varani, K; Cacciari, B.; Baraldi, P. G.; Dionisotti, S.; Ongini, E.; Borea, P. A., “Binding affinity of adenosine receptor agonists and antagonists at human cloned […] adenosine receptors,” Life Sci., 63, 81-87, 1998). In competition studies, at least 6-8 different concentrations of compounds are used and non-specific binding is determined in the presence of 50 μM NECA for an incubation time of 60 min. at 25° C.

adenosine A3 receptor = target: T5, adenosine A3 receptor (Homo sapiens, UniProt P0DMS8); experiment: Adenylate cyclase assay: block of agonist-induced inhibition of cAMP production; type: biochemical; conditions: FIG. 2, comparison in words
T5 construct: expressed in transfected cells; host or cells: CHO
T5 sequence (P0DMS8 1-318): T3 sequence (P0DMS8 1-318)
Experimental: as §1
Membrane preparation is suspended in 0.5 mL of incubation mixture (50 mM Tris HCl, MgCl2 10 mM, EDTA, 1 mM, pH 7.4) containing GTP 5 µM, 0.5 mM 4-(3-buthoxy-4-methoxybenzyl)-2-imidazolidinone (Ro 20-1274) as phosphodiesterase inhibitor, 2.0 IU/mL adenosine deaminase and pre-incubated for 10 min. in a shaking bath at 37° C. […]

[3] = target: T6, human recombinant A2A adenosine receptors (Homo sapiens, UniProt P29274); experiment: Human cloned A2A receptor binding, [3H]-SCH58261, CHO cells; conditions: read-out: hA2A (Ki)
T6 construct: expressed in transfected cells; host or cells: CHO
Experimental: as §1, §2

[4] = target: T7, human recombinant A2B adenosine receptors (Homo sapiens, UniProt P29275); experiment: Human cloned A2B receptor binding, [3H]-DPCPX, HEK-293 cells; conditions: read-out: hA2B (Ki)
T7 construct: host or cells: HEK-293
T7 sequence (P29275 1-332): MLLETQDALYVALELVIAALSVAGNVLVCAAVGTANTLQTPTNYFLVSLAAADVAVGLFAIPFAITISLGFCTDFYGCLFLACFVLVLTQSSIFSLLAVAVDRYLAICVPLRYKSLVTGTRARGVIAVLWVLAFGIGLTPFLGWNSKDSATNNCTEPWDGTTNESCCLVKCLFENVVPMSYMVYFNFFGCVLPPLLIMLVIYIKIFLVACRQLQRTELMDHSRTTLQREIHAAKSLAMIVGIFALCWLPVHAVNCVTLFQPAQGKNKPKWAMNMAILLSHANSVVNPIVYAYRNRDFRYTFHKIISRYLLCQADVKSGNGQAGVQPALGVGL
Experimental: Binding of [^3H]-DPCPX to HEK-293 cells (Receptor Biology, Inc., Beltsville, Md.) transfected with the human recombinant A2B adenosine receptors is performed essentially to the method described by Varani and coworkers (Mol. Pharmacol.). In particular, assays are carried out for 60 min. at 25° C. in 0.1 mL of 50 mM Tris HCl Buffer, 10 mM MgCl2, 1 mM EDTA, 0.1 mM benzamidine pH 7.4, 2 IU/ml adenosine deaminase containing 40 nM [^3H]-DPCPX, diluted membranes (20 µg of protein/assay) and at least 6-8 different concentration of tested compounds. Non-specific binding is determined in the presence of 100 μM of NECA and is always 30% of the total binding.

Solubility in water = type: physicochemical
[5] = target: T8, adenosine A3 receptors in Jurkat cell membranes (Homo sapiens, UniProt P0DMS8); experiment: Saturation binding of radioligand of Compound 108, Jurkat cell membranes
T8 construct: endogenous in cells; host or cells: Jurkat (human T-cell leukaemia)
T8 sequence (P0DMS8 1-318): T3 sequence (P0DMS8 1-318)

[6] = target: T9, adenosine A3 receptors in HL60 membranes (Homo sapiens, UniProt P0DMS8); experiment: Saturation binding of radioligand of Compound 108, HL60 membranes
T9 construct: endogenous in cells; host or cells: HL60 (promyelocytic human leukaemia)
T9 sequence (P0DMS8 1-318): T3 sequence (P0DMS8 1-318)

T6 sequence (P29274 whole entry): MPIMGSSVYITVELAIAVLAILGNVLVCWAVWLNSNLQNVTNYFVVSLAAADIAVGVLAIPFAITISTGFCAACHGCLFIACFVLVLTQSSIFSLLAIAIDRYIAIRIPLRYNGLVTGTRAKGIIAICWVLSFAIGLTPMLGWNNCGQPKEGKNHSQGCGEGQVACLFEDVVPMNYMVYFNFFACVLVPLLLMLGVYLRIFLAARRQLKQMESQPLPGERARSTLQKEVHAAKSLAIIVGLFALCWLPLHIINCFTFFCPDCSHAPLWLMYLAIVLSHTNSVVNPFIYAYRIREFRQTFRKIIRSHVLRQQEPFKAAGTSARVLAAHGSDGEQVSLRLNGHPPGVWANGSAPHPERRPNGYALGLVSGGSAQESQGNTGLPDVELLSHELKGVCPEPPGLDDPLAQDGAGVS
T2 sequence (P30543 whole entry): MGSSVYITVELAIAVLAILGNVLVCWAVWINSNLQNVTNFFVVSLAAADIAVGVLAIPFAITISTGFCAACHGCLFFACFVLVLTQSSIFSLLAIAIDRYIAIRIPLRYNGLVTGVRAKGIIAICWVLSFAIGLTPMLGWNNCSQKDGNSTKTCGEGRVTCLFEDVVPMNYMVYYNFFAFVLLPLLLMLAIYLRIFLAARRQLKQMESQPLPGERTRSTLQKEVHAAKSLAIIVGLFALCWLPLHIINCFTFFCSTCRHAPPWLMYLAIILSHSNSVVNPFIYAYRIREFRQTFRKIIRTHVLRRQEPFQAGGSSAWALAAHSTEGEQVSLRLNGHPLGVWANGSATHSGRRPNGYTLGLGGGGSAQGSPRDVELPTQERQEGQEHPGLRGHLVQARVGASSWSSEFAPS

## CC(C)CCn1cc2c(nc(NC(=O)Cc3ccccc3)n3nc(-c4ccco4)nc23)n1 [Compound 58, 5-[(Benzyl)carbonyl]amino-8-isopentyl-2-(2-furyl)-pyrazolo[4,3.e]1,2,4-triazolo[1,5-c]pyrimidine]
rA1 adenosine receptor
  Ki: 0.373 µM
rA2A adenosine receptor
  Ki: 0.323 µM
[1]; HEK-293 membranes, [125I]AB-MECA, read-out: hA3 (Ki)
  Ki: 0.0811 µM
[1]; selectivity ratio of Ki values
  rA1/hA3: 4.6
  rA2A/hA3: 4
other
  melting point: 144 to 145 °C

## Cn1cc2c(nc(NC(=O)Nc3ccncc3)n3nc(-c4ccco4)nc23)n1 [Compound 106, N-[2-(2-furyl)-8-methyl-8H-pyrazolo[4,3-e][1,2,4]triazolo[1,5-c]pyrimidin-5-yl]-N′-pyridin-4-yl urea]
[2]
  Ki: 0.25 µM
Adenosine A3 receptor
  potency of adenosine A3 antagonism (block of C1-IB-MECA induced inhibition of cAMP production): comparable
[3]
  Ki: 0.06 µM
[4]
  Ki: 0.2 µM

## Cl.Cn1cc2c(nc(NC(=O)Nc3ccncc3)n3nc(-c4ccco4)nc23)n1 [Compound 107, N-[2-(2-furyl)-8-methyl-8H-pyrazolo[4,3-e][1,2,4]triazolo[1,5-c]pyrimidin-5-yl]-N′-pyridin-4-ylurea hydrochloride]
[2]; hydrochloride
  Ki: 0.35 µM
Adenosine A3 receptor
  potency of adenosine A3 antagonism (block of C1-IB-MECA induced inhibition of cAMP production): comparable
[3]; hydrochloride
  Ki: 0.1 µM
[4]; hydrochloride
  Ki: 0.25 µM
Solubility in water
  solubility in water: soluble in water

## [3H]CC([3H])Cn1cc2c(nc(NC(=O)Nc3ccc(OC)cc3)n3nc(-c4ccco4)nc23)n1 (stereo not shown) [radioligand of Compound 108, 5-[[(4-methoxyphenyl)amino]carbonyl]amino-8-(1,2-ditritiopropyl)-2-(2-furyl)-pyrazolo[4,3-e]1,2,4-triazolo[1,5-c]pyrimidine]
[5]; Jurkat cell membranes, FIG. 4, n=3
  Bmax value: 1.30±0.03 pmol/mg protein
[5]; Jurkat cells
  A3 receptor density detected: approximately 1300 fmol/mg protein
[6]; FIG. 5
  Bmax value / A3 receptor density detected: 626±42 fmol/mg protein
[6]; FIG. 5, listed as tritiated analogue of Compound 108
  Bmax value / A3 receptor density detected: ~650 fmol/mg protein

— patent US7271171B2, “Adenosine A3 receptor modulators” (King Pharmaceuticals Research and Development, Inc., priority 1998, dated 2007)
